In US10294202B2, “Pyrrolidinones as herbicides” (FMC Corporation, priority 2013, dated 2019):

Assays:
barnyardgrass [1] = experiment: Test A pre-/postemergence herbicide test; assay type: in vivo, Echinochloa crus-galli
In short: (§1)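 Approximately 10 days after treatment in the greenhouse, plants were compared with untreated controls and given a 0–100 visual injury rating. Applications: preemergence directed soil spray; postemergence on 2–10 cm plants at the one- to two-leaf stage.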

crabgrass, large = experiment: Test A pre-/postemergence herbicide test; assay type: in vivo, Digitaria sanguinalis
In short: as §1

giant foxtail = experiment: Test A pre-/postemergence herbicide test; assay type: in vivo, Setaria faberii
In short: as §1

morningglory = experiment: Test A pre-/postemergence herbicide test; assay type: in vivo, Ipomoea spp.
In short: as §1

pigweed = experiment: Test A pre-/postemergence herbicide test; assay type: in vivo, Amaranthus retroflexus
In short: as §1

velvetleaf = experiment: Test A pre-/postemergence herbicide test; assay type: in vivo, Abutilon theophrasti
In short: as §1

wheat = experiment: Test A pre-/postemergence herbicide test; assay type: in vivo, Triticum aestivum
In short: as §1

corn = experiment: Test A pre-/postemergence herbicide test; assay type: in vivo, Zea mays
In short: as §1

rice = experiment: Test B flooded paddy test; assay type: in vivo, Oryza sativa; conditions: Flood, scale of 0 to 100 where 0 is no effect and 100 is complete control
In short: (§2)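 Scored visually 0–100 (0 no effect, 100 complete control) versus controls after 13 to 15 greenhouse days. Treatment: compound added to paddy water kept 3 cm above soil, on 2-leaf-stage plants.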

sedge, umbrella = experiment: Test B flooded paddy test; assay type: in vivo, Cyperus difformis; conditions: Flood, scale of 0 to 100 where 0 is no effect and 100 is complete control
In short: as §2

ducksalad = experiment: Test B flooded paddy test; assay type: in vivo, Heteranthera limosa; conditions: Flood, scale of 0 to 100 where 0 is no effect and 100 is complete control
In short: as §2

barnyardgrass [2] = experiment: Test B flooded paddy test; assay type: in vivo, Echinochloa crus-galli; conditions: Flood, scale of 0 to 100 where 0 is no effect and 100 is complete control
In short: as §2

[3] = Postemergence, 125 g ai/ha, 0 to 100 scale, 0 is no effect, 100 is complete control
[4] = Postemergence, 500 g ai/ha, 0 to 100 scale (0 no effect, 100 complete control)
[5] = Preemergence, 125 g ai/ha, 0 to 100 scale where 0 is no effect and 100 is complete control
[6] = preemergence, 500 g ai/ha, 0 to 100 scale, 0 is no effect and 100 is complete control
[7] = Postemergence, 125 g ai/ha, visual rating on 0 to 100 scale (0 no effect, 100 complete control), approx. 10 days
[8] = Postemergence, 1000 g ai/ha, 0 to 100 scale (0 no effect, 100 complete control)
[9] = Preemergence, 1000 g ai/ha, visual rating on 0 to 100 scale (0 no effect, 100 complete control), approx. 10 days
[10] = Postemergence, 125 g ai/ha, 0 to 100 scale, 0 no effect, 100 complete control
[11] = Preemergence, 125 g ai/ha, visual rating on 0 to 100 scale (0 no effect, 100 complete control)
[12] = preemergence, 500 g ai/ha, 0 to 100 scale

O=C1NCC(c2ccc(Cl)c(C(F)(F)F)c2)C1C(=O)Nc1ccccc1C(F)(F)F (racemic) [Compound 269]
Plant response rating, Barnyardgrass (barnyardgrass [1]; [3]): 50
Plant response rating, Barnyardgrass (barnyardgrass [1]; [4]): 70
Plant response rating, Barnyardgrass (barnyardgrass [1]; [5]): 70
Plant response rating, Barnyardgrass (barnyardgrass [1]; [6]): 80
Plant response rating, Crabgrass, Large (crabgrass, large; [3]): 60
Plant response rating, Crabgrass, Large (crabgrass, large; [4]): 80
Plant response rating, Crabgrass, Large (crabgrass, large; [5]): 80
Plant response rating, Crabgrass, Large (crabgrass, large; [6]): 90
Plant response rating, Foxtail, Giant (giant foxtail; [3]): 70
Plant response rating, Foxtail, Giant (giant foxtail; [4]): 80
Plant response rating, Foxtail, Giant (giant foxtail; [5]): 80
Plant response rating, Foxtail, Giant (giant foxtail; [6]): 80
Plant response rating, Morningglory (morningglory; [7]): 0
Plant response rating, Morningglory (morningglory; [4]): 0
Plant response rating, Morningglory (morningglory; [5]): 0
Plant response rating, Morningglory (morningglory; [6]): 0
Plant response rating, Pigweed (pigweed; [7]): 70
Plant response rating, Pigweed (pigweed; [4]): 60
Plant response rating, Pigweed (pigweed; [5]): 50
Plant response rating, Pigweed (pigweed; [6]): 70
Plant response rating, Velvetleaf (velvetleaf; [5]): 0
Plant response rating, Velvetleaf (velvetleaf; [6]): 0
Plant response rating, Wheat (wheat; [7]): 0
Plant response rating, Wheat (wheat; [4]): 0
Plant response rating, Wheat (wheat; [5]): 0
Plant response rating, Wheat (wheat; [6]): 0
Plant response rating, Corn (corn; [3]): 0
Plant response rating, Corn (corn; [4]): 20
Plant response rating, Corn (corn; [5]): 0
Plant response rating, Corn (corn; [6]): 0
Plant response rating, Rice (rice; 1000 g ai/ha): 0
Plant response rating, Sedge, Umbrella (sedge, umbrella; 1000 g ai/ha): 0
Plant response rating, Ducksalad (ducksalad; 1000 g ai/ha): 100
Plant response rating, Barnyardgrass (barnyardgrass [2]; 1000 g ai/ha): 0

Cn1ccc(NC(=O)C2C(=O)NCC2c2ccc(F)c(F)c2)n1 (centres unmarked) [Compound 31]
Plant response rating, Barnyardgrass (barnyardgrass [1]; [8]): 60
Plant response rating, Barnyardgrass (barnyardgrass [1]; [9]): 50
Plant response rating, Crabgrass, Large (crabgrass, large; [8]): 20
Plant response rating, Crabgrass, Large (crabgrass, large; [9]): 80
Plant response rating, Foxtail, Giant (giant foxtail; [8]): 20
Plant response rating, Foxtail, Giant (giant foxtail; [9]): 80
Plant response rating, Morningglory (morningglory; [8]): 0
Plant response rating, Pigweed (pigweed; [8]): 0
Plant response rating, Pigweed (pigweed; [9]): 0
Plant response rating, Velvetleaf (velvetleaf; [8]): 0
Plant response rating, Velvetleaf (velvetleaf; [9]): 0
Plant response rating, Wheat (wheat; [8]): 0
Plant response rating, Wheat (wheat; [9]): 50
Plant response rating, Corn (corn; [8]): 30
Plant response rating, Corn (corn; [9]): 20
Plant response rating, Rice (rice; 250 g ai/ha): 0
Plant response rating, Sedge, Umbrella (sedge, umbrella; 250 g ai/ha): 0
Plant response rating, Ducksalad (ducksalad; 250 g ai/ha): 0
Plant response rating, Barnyardgrass (barnyardgrass [2]; 250 g ai/ha): 0

O=C1NCC(c2ccc(Cl)nc2)C1C(=O)Nc1ccccc1C(F)(F)F (centres unmarked) [Compound 42]
Plant response rating, Barnyardgrass (barnyardgrass [1]; [10]): 0
Plant response rating, Barnyardgrass (barnyardgrass [1]; [4]): 40
Barnyardgrass plant response rating (barnyardgrass [1]; [11]): 0
Plant response rating, Barnyardgrass (barnyardgrass [1]; preemergence, 500 g ai/ha, 0 to 100 scale (0 no effect, 100 complete control)): 60
Plant response rating, Crabgrass, Large (crabgrass, large; [10]): 0
Plant response rating, Crabgrass, Large (crabgrass, large; [4]): 70
Crabgrass, Large plant response rating (crabgrass, large; [11]): 80
Plant response rating, Crabgrass, Large (crabgrass, large; [12]): 90
Plant response rating, Foxtail, Giant (giant foxtail; [10]): 0
Plant response rating, Foxtail, Giant (giant foxtail; [4]): 20
Foxtail, Giant plant response rating (giant foxtail; [11]): 20
Plant response rating, Foxtail, Giant (giant foxtail; [12]): 80
Plant response rating, Morningglory (morningglory; [10]): 0
Plant response rating, Morningglory (morningglory; [4]): 0
Plant response rating, Pigweed (pigweed; [10]): 0
Plant response rating, Pigweed (pigweed; [4]): 0
Pigweed plant response rating (pigweed; [11]): 0
Plant response rating, Pigweed (pigweed; [12]): 30
Plant response rating, Velvetleaf (velvetleaf; [10]): 30
Plant response rating, Velvetleaf (velvetleaf; [4]): 50
Velvetleaf plant response rating (velvetleaf; [11]): 0
Plant response rating, Velvetleaf (velvetleaf; [12]): 0
Plant response rating, Wheat (wheat; [10]): 0
Plant response rating, Wheat (wheat; [4]): 0
Wheat plant response rating (wheat; [11]): 0
Plant response rating, Wheat (wheat; [12]): 0
Plant response rating, Corn (corn; [10]): 0
Plant response rating, Corn (corn; [4]): 0
Corn plant response rating (corn; [11]): 0
Plant response rating, Corn (corn; [12]): 0
Plant response rating, Rice (rice; 250 g ai/ha): 0
Plant response rating, Sedge, Umbrella (sedge, umbrella; 250 g ai/ha): 0
Plant response rating, Ducksalad (ducksalad; 250 g ai/ha): 60
Plant response rating, Barnyardgrass (barnyardgrass [2]; 250 g ai/ha): 0

CS(=O)(=O)c1ccccc1NC(=O)C1C(=O)NCC1c1ccc(Cl)c(Cl)c1 (centres unmarked) [Compound 43]
Plant response rating, Barnyardgrass (barnyardgrass [1]; [8]): 40
Plant response rating, Barnyardgrass (barnyardgrass [1]; [9]): 20
Plant response rating, Crabgrass, Large (crabgrass, large; [8]): 20
Plant response rating, Crabgrass, Large (crabgrass, large; [9]): 90
Plant response rating, Foxtail, Giant (giant foxtail; [8]): 50
Plant response rating, Foxtail, Giant (giant foxtail; [9]): 80
Plant response rating, Morningglory (morningglory; [8]): 10
Plant response rating, Morningglory (morningglory; [9]): 0
Plant response rating, Pigweed (pigweed; [8]): 20
Plant response rating, Pigweed (pigweed; [9]): 0
Plant response rating, Velvetleaf (velvetleaf; [8]): 30
Plant response rating, Velvetleaf (velvetleaf; [9]): 0
Plant response rating, Wheat (wheat; [8]): 0
Plant response rating, Wheat (wheat; [9]): 0
Plant response rating, Corn (corn; [8]): 0
Plant response rating, Corn (corn; [9]): 0
Plant response rating, Rice (rice; 250 g ai/ha): 0
Plant response rating, Sedge, Umbrella (sedge, umbrella; 250 g ai/ha): 0
Plant response rating, Ducksalad (ducksalad; 250 g ai/ha): 0
Plant response rating, Barnyardgrass (barnyardgrass [2]; 250 g ai/ha): 0
